Values quoted from earlier work as cited in patent US20040265344A1, “Aloe suppositories” (priority 2003, published 2004).

Assays:
[1] = system: rat colonic mucosa sodium and potassium adenosine triphosphatase (ATP-ase); settings: in vitro

Structure (SMILES) | effect on the rise in residual fluid volume (residual fluid volume) | effect on rat colonic mucosa sodium and potassium ATP-ase [1]
CN(C)C(=O)C(CCN1CCC(O)(c2ccc(Cl)cc2)CC1)(c1ccccc1)c1ccccc1 [loperamide] | did not completely inhibit | 
O=C1c2c(O)cccc2Cc2cc(CO)cc(O)c21 [Aloe-emodin-9-anthrone] |  | inhibited
